From US10076504B2, “Glucagon antagonists” (Ligand Pharmaceuticals, Inc., priority 2014, dated 2018)
Entries after “also recorded” stand apart in the source; their conditions may differ. Read-outs that look alike come from different tables or passages of the source.

Experiments:
[1] = Liver microsome incubation; format: in vitro ADME, dog
Protocol: (§1) The compound of Formula IIIa (below) was incubated for 60 minutes at 37 C with mouse, rat, dog, monkey, and human liver microsomes.
(§2) Concentrations of IIIa were measured at multiple time points by LC-MS/MS. IIIa was stable with predicted clearance well below hepatic blood flow in all species.

[2] = Single ascending dose study, pharmacokinetics; format: in vivo, human; details: for AUC(0-inf) / Cmax / Tmax / half-life: human, plasma, po; for time to peak plasma concentrations: post dose
Protocol: (§3) Oral doses of IIIa were administered to normal healthy volunteers (NHV) and subjects with type 2 diabetes mellitus (T2DM). A single center, randomized, double-blind, placebo-controlled single ascending dose study was done in both NHV (n=48) and T2DM subjects (n=8). Dose escalation only occurred after review of safety and tolerability data from previous dose levels (n=8/cohort; 2-placebo & 6-IIIa). Dosing of the T2DM cohort was initiated only after the equivalent dose had been administered to NHV and safety data had been reviewed. All subjects were administered IIIa in the morning after an overnight fast with the exception of the NHV in the 40 mg cohort. NHV subjects in the 40 mg cohort initially received IIIa in a fasted state. Following a 3 week washout period, IIIa was readministered after breakfast at 40 mg to determine the effects of food consumption on pharmacokinetics.
This was a single center, randomized, double-blind, placebo-controlled single ascending dose study in both normal healthy volunteers (NHV) (n=48) and subjects with type 2 diabetes mellitus (T2DM) (n=8). All subjects were administered Formula IIIa as a solution formulated with Captisol® after an overnight fast with the exception of the NHV in the 40 mg cohort. The NHV 40 mg cohort initially received Formula IIIa in a fasted state. Following a washout period, subjects received 40 mg Formula IIIa after breakfast to explore the effects of food consumption on pharmacokinetics.
Plasma levels of Formula IIIa were measured by validated LC-MS/MS method. Formula IIIa was well absorbed after oral administration with peak plasma concentrations reached approximately 5-8 hours post dose. Consistent with preclinical predictions, clearance was slow and Formula IIIa was not detected in the urine.

[3] = Liver microsome incubation; format: in vitro ADME, rat
Protocol: as §1, §2

[4] = Liver microsome incubation; format: in vitro ADME, mouse
Protocol: as §1, §2

[5] = Excretion experiments in rats; format: in vivo, rat
Protocol: Pharmacokinetics of IIIa were evaluated after both oral and IV administration in mice, rats, dogs, and monkeys.

fasting plasma glucose = assay: Single ascending dose study, pharmacodynamics; format: in vivo, human
Protocol: as §3
Formula IIIa was well-absorbed after oral administration; peak plasma concentrations were reached approximately 5 to 8 hours post dose with a long elimination half-life of about 50 hours. Such data supports, for example, once-daily dosing of Formula III. The effects of Formula IIIa on fasting and post-prandial plasma glucose, glucagon, insulin, and glucagon-like peptide-1 (GLP-1) were evaluated in NH and T2DM subjects, and a meal tolerance test (MTT) and continuous glucose monitoring (CGM) were performed in T2DM subjects. […] The decrease in glucose was most obvious in the fasting plasma glucose (FPG) levels 24 and 48 hours post-dose. The magnitude of decrease in FPG was greater in subjects with T2DM than in NH subjects.

[6] = Liver microsome incubation, statement for all species; format: in vitro ADME; details: predicted clearance well below hepatic blood flow
Protocol: as §1, §2

[7] = Liver microsome incubation; format: in vitro ADME, monkey
Protocol: as §1, §2

[8] = Liver microsome incubation; format: in vitro ADME, human
Protocol: as §1, §2

[9] = human subjects, oral administration
[10] = 40 mg, Diabetic, 40 mg oral, Fasted
[11] = 40 mg, Normal healthy volunteer, 40 mg oral, Fasted
[12] = 40 mg, Normal healthy volunteer, 40 mg oral, Fed
[13] = T2DM subjects, single dose 40 mg

- 1st-order kinetic rate constant ([1]; Dog liver microsomes, 60 minutes at 37 C): 0.0016 min⁻¹
- Predicted systemic clearance ([1]; Dog, from liver microsomes): 4.01 mL/min/kg body weight
- pharmacokinetics in healthy volunteers vs diabetic subjects ([2]; 40 mg): comparable
- effect of food on pharmacokinetics ([2]; 40 mg, healthy volunteers, fasted vs after breakfast): comparable
- plasma exposure versus dose ([2]; 2 to 480 mg oral, human subjects): Dose dependent increases
- CL/F ([2]; Diabetic, 40 mg oral, Fasted): 1.32 L/h
- CL/F ([2]; Normal healthy volunteer, 40 mg oral, Fasted): 1.33 L/h
- CL/F ([2]; Normal healthy volunteer, 40 mg oral, Fed): 1.67 L/h
- absorption after oral administration ([2]; human subjects): well absorbed
- clearance [2, 9]: slow
- detection in the urine [2, 9]: not detected
- AUC(0-inf) [2, 10]: 33700 ng·h/mL
- Cmax [2, 10]: 1420 ng/mL
- Tmax [2, 10]: 7.5 h
- half-life ([2]; 40 mg, Diabetic, 40 mg oral, Fasted, read-out: t1/2 (converted)): 58.5 h
- AUC(0-inf) [2, 11]: 32700 ng·h/mL
- Cmax [2, 11]: 893 ng/mL
- Tmax [2, 11]: 8.4 h
- half-life ([2]; 40 mg, Normal healthy volunteer, 40 mg oral, Fasted, read-out: t1/2 (converted)): 51.6 h
- AUC(0-inf) [2, 12]: 25200 ng·h/mL
- Cmax [2, 12]: 779 ng/mL
- Tmax [2, 12]: 7.2 h
- half-life ([2]; 40 mg, Normal healthy volunteer, 40 mg oral, Fed, read-out: t1/2 (converted)): 53.8 h
- half-life ([2]; oral administration, NH and T2DM subjects, read-out: elimination half-life (converted)): ~50 h
- time to peak plasma concentrations ([2]; oral administration, human subjects): 5 to 8 h
- time to peak plasma concentrations ([2]; oral administration, human subjects, listed as Formula IIIa): 5 to 8 h
- 1st-order kinetic rate constant ([3]; Rat liver microsomes, 60 minutes at 37 C): 0.0058 min⁻¹
- Predicted systemic clearance ([3]; Rat, from liver microsomes): 13.8 mL/min/kg body weight
- 1st-order kinetic rate constant ([4]; Mouse liver microsomes, 60 minutes at 37 C): 0.0017 min⁻¹
- Predicted systemic clearance ([4]; Mouse, from liver microsomes): 7.05 mL/min/kg body weight
- levels detected in the urine [5]: negligible
- route of excretion [5]: primarily excreted in the bile
- stability in liver microsomes [6]: stable
- 1st-order kinetic rate constant ([7]; Monkey liver microsomes, 60 minutes at 37 C): 0.0057 min⁻¹
- Predicted systemic clearance ([7]; Monkey, from liver microsomes): 11.9 mL/min/kg body weight
- 1st-order kinetic rate constant ([8]; Human liver microsomes, 60 minutes at 37 C): 0.0021 min⁻¹
- Predicted systemic clearance ([8]; Human, from liver microsomes): 3.18 mL/min/kg body weight
SMILES: Cc1cc(C)c(-c2ccc(NC(=O)[C@H](Cc3ccc(C(=O)NCCS(=O)(=O)O)cc3)c3ccc(-c4ccc(C(C)(C)C)cc4)cc3)cc2)c(C)c1 [IIIa]
- absorption after oral administration ([2]; human subjects, listed as Formula IIIa): well absorbed; also recorded: well-absorbed
- glucose levels (fasting plasma glucose; NH subjects): small decreases in glucose levels approximating dose-dependency
- mean glucagon and total GLP-1 levels (fasting plasma glucose; NH subjects, dose-dependent up to 240 mg, 24 to 96 hours post-dose): increased
- glucose levels (fasting plasma glucose; T2DM subjects): lowered glucose levels
- duration of glucose suppression (fasting plasma glucose; T2DM subjects, single dose): continued through 48 hours
- lowering of fasting plasma glucose (fasting plasma glucose; [13]): 50 mg/dL
- lowering of fasting plasma glucose, placebo adjusted (fasting plasma glucose; [13]): 57 mg/dL
- changes in active GLP-1 or insulin levels (fasting plasma glucose; all dose groups, single dose): did not generate a consistent trend
- duration of glucose suppression (fasting plasma glucose; normal healthy volunteers): continued through 48 hours
- fasting plasma glucose (fasting plasma glucose; normal healthy volunteers, single dose 2 to 480 mg): lowered fasting plasma glucose
- 24-hour glucose AUC (continuous glucose monitoring) (fasting plasma glucose; subjects with T2DM): reduction
- mean glucagon and total GLP-1 levels (fasting plasma glucose; subjects with T2DM, compared to placebo, 24 to 72 hours post-dose): increased compared to placebo treatment
